In general, inhibition refers to the relative decrease from the control value, in per cent. A higher inhibition goes with a response far below the control.

For the first assay, the target named is T1, Rat liver microsomal squalene synthetase (Rattus norvegicus, UniProt Q02769).
T1 construct: Rat liver microsome, the source of enzyme; from tissue; host or cells: rat liver microsomes
T1 sequence (Q02769 1-416): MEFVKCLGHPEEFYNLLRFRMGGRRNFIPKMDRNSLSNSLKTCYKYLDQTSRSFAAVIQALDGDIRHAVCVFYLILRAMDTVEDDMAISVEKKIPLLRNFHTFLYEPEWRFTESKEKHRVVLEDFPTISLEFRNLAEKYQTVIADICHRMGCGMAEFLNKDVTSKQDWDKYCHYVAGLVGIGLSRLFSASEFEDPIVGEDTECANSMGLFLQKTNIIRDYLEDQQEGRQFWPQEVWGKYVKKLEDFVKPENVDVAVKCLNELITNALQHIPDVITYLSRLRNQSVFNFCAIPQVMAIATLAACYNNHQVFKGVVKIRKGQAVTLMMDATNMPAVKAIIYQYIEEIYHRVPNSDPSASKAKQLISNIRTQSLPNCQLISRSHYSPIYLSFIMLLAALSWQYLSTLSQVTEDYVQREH
In words: In vitro inhibition of squalene synthetase. To be noted: 10 µM test compound; rat liver microsomes, labelled farnesyl pyrophosphate, 10 minutes at 37 °C; compared to controls with no test compound. It counts as biochemical. As to the method:
In vitro inhibition of squalene synthetase may be measured by the following procedure. Rat liver microsomal squalene synthetase activity was measured using farnesyl pyrophosphate as a substrate and quantitating squalene synthesis using labelled farnesyl pyrophosphate and counting the squalene formed. Rat liver microsome, the source of enzyme, was prepared according to the method of Gillies, P. J., et al., Exp. Molc. Pathol. 44: 329-339 (1986), a modification of the procedure of Erickson, S. K., and Cooper, A. D., Metabolism, 29: 991-996 (1980). […] Oxygen was excluded from the closed incubation tube by degassing with nitrogen. The reaction was terminated by the addition of ethanolic KOH and after degassing with N2, the microsomal membranes were solubilized by heating at 60 °C for 30 minutes. The squalene was extracted into hexane, and the squalene was separated from all other radioactive molecules by passage over an activated alumina column. […] The per cent inhibition at a dose of 10 µM (or 1 µM) compared to controls with no test compound was determined. […]
A general note: Liver microsomes are a subcellular fraction often used to study metabolism.
For `O=C(O)[C@H]1[C@H](C(=O)O)[C@H](C(=O)N(CCCc2ccccc2)Cc2ccc(Oc3ccccc3)cc2)[C@H]1C(=O)N(CCCc1ccccc1)Cc1ccc(Oc2ccccc2)cc1` [Example 57, (1α,2β,3β,4α)-1,2-Di[N-(4-phenoxybenzyl)-N-(3-phenyl-1-propyl)aminocarbonyl]cyclobutane-3,4-dicarboxylic acid], the inhibition at 10 µM stood at 64%.

`CCCN(Cc1ccc(Oc2cccc3ccccc23)cc1)C(=O)C1C(C(=O)O)C(C(=O)O)C1C(=O)N(CCC)Cc1ccc(Oc2cccc3ccccc23)cc1` (stereo not drawn) [Example 91, (1α,2β,3β,4α)-1,2-Di[N-propyl-N-(4-naphth-1-yloxybenzyl)aminocarbonyl]cyclobutane-3,4-dicarboxylic acid] yielded an inhibition at 10 µM of 62%.

In turn, `O=C(O)[C@H]1[C@H](C(=O)O)[C@H](C(=O)N(CC=CC=Cc2ccccc2)Cc2ccccc2)[C@H]1C(=O)N(CC=CC=Cc1ccccc1)Cc1ccccc1` [Example 36, (1α,2β,3β,4α)-1,2-Di[N-benzyl-N-(5-phenyl-2,4-pentadienyl)aminocarbonyl]cyclobutane-3,4-dicarboxylic acid] had an inhibition at 10 µM of 63%.

As to `CN(Cc1cccc(Oc2ccc(F)cc2)c1)C(=O)[C@H]1[C@@H](C(=O)O)[C@H](C(=O)O)[C@@H]1C(=O)N(C)Cc1cccc(Oc2ccc(F)cc2)c1` [Example 21, (1α,2β,3β,4α)-1,2-Di[N-methyl-N-(3-[4-fluorophenoxy]benzyl)aminocarbonyl]cyclobutane-3,4-dicarboxylic acid], testing at 10 µM gave an inhibition of 52%.

The same assay, now with this note: values marked * in Table 1: 1 µM test compound; rat liver microsomes, labelled farnesyl pyrophosphate, 10 minutes at 37 °C.
With `O=C(O)C1C(C(=O)O)C(C(=O)N(CCF)Cc2ccc(Oc3ccccc3)cc2)C1C(=O)N(CCF)Cc1ccc(Oc2ccccc2)cc1` (stereo not drawn) [Example 43, (1α,2β,3β,4α)-1,2-Di[N-(2-fluoroethyl)-N-(4-phenoxybenzyl)aminocarbonyl]cyclobutane-3,4-dicarboxylic acid], the inhibition at 1 µM was 47%.

`CCCN(Cc1ccc(Oc2ccccc2)cc1)C(=O)C1C(C(=O)O)C(C(=O)N2CCCC2C(=O)O)C1C(=O)N(CCC)Cc1ccc(Oc2ccccc2)cc1` (stereo not drawn) [Example 107, (1α,2β,3β,4α)-1,2-Di[N-propyl-N-(4-phenoxybenzyl)aminocarbonyl]cyclobutane-3,4-dicarboxylic acid mono-d,l-Proline amide] returned an inhibition at 1 µM of 75%.

`CCCN(Cc1ccc(Oc2ccccc2)cc1)C(=O)C1C(C(=O)O)C(c2nn[nH]n2)C1C(=O)N(CCC)Cc1ccc(Oc2ccccc2)cc1` (stereo not drawn) [Example 72C] gave an inhibition at 1 µM of 51%.

In the case of “(1α,2β,3β,4α)-1,2-Di[N-propyl-N-(4-(3,4-methylenedioxyphenoxy)benzyl)aminocarbonyl]cyclobutane-3,4-carboxylic acid [Example 119C]”, the “% Inhibition at 1 µM” value is 45* %.

In the case of `CCCN(Cc1ccc(Oc2ccccc2)cc1)C(=O)C1C(C(=O)O)C(C(O)C(=O)O)C1C(=O)N(CCC)Cc1ccc(Oc2ccccc2)cc1` (stereo not drawn) [Example 78B, (1α,2β,3β,4α)-1,2-Di[N-propyl-N-(4-phenoxybenzyl)aminocarbonyl]-4-(1-carboxy-1-hydroxymethyl)cyclobutane-3-carboxylic acid], at 1 µM the inhibition was 82%.

In the case of `O=C(O)[C@H]1[C@H](C(=O)O)[C@H](C(=O)N(Cc2ccc(Oc3ccccc3)cc2)CC2CCCCC2)[C@H]1C(=O)N(Cc1ccc(Oc2ccccc2)cc1)CC1CCCCC1` [Example 31], the inhibition at 1 µM amounted to 37%.

The same assay, now with this note: values marked * in Table 1: 1 µM test compound; rat liver microsomes, labelled farnesyl pyrophosphate, 10 minutes at 37 °C; 1 µM.
For “(1α,2β,3β,4α)-1,2-Di[N-propyl-N-(4-phenoxybenzyl)aminocarbonyl]cyclobutane-3-phenoxycarbonyl-4-carboxylic acid [Example 105B]”, the “% Inhibition at 1 µM” value is given as 57* %.

With `CCCCC(NC(=O)[C@@H]1[C@@H](C(=O)O)[C@@H](C(=O)N(CCC)Cc2ccc(Oc3ccccc3)cc2)[C@@H]1C(=O)N(CCC)Cc1ccc(Oc2ccccc2)cc1)C(=O)O` (single isomer, unassigned) [Example 104B, (1α,2β,3β,4α)-1,2-Di[N-propyl-N-(4-phenoxybenzyl)aminocarbonyl]cyclobutane-3,4-dicarboxylic acid Mono-Norleucine Amide], the “% Inhibition at 1 µM” value is reported as 71* %.

For the origin of these results see EP0677039B1, “CYCLOBUTANE DERIVATIVES AS INHIBITORS OF […] SYNTHETASE AND PROTEIN […]” (Abbott Laboratories, priority 1993, dated 1995).
